Assay results: paper PMC10390517, “Design, synthesis, in vitro, and in silico evaluations of benzo[d]imidazole-amide-1,2,3-triazole-N-arylacetamide hybrids as new antidiabetic agents targeting α-glucosidase” (Scientific Reports, 2023)
Read-outs that look alike come from different tables or passages of the source.

Columns and labels:
α-glucosidase [1] = target: T1, α-glucosidase (Saccharomyces cerevisiae, UniProt P53341); experiment: biochemical; assay type: biochemical; details: for activity against α-glucosidase (in words): SAR discussion / conclusion, compared with acarbose; for IC50: yeast form of α-glucosidase, mean ± S.E. of at least three different experiments
Description: The newly synthesized benzo[d]imidazole-amide-1,2,3-triazole-N-arylacetamide hybrids 8a–n were evaluated against yeast form of α-glucosidase.

[2] = In vitro cytotoxicity by MTT method, MCF-7; details: human, MCF-7 breast cancer cells
[3] = test system: breast cancer cell line (MCF-7); experiment: In vitro cytotoxicity by MTT method, MCF-7; details: cancer cell line MCF-7
α-glucosidase [4] = target: T1, α-glucosidase; experiment: Kinetic study of α-glucosidase inhibition (Lineweaver–Burk plots); assay type: biochemical, yeast
Description: Therefore, values of Vmax remained constant while the values of Km increased. […] Besides, the Ki value was 40.0 µM that was obtained by the secondary plot of Lineweaver–Burk plots (Fig. 2b).
Figure 2 Inhibitory kinetics of compound 8c on α-glucosidase. (a) Lineweaver–Burk plots for inhibition of compound 8c. (b) The secondary plot of Lineweaver–Burk plots for determination Ki value of compound 8c.
In vitro anti-α-glucosidase inhibition and kinetic study of the new compounds 8a–n were performed exactly according to our pervious reported works.

[5] = test system: normal human cell line (HDF); experiment: In vitro cytotoxicity by MTT method, HDF; details: normal cell line HDF
[6] = In vitro cytotoxicity by MTT method, HDF; details: human, HDF normal human cells
[7] = read-out: IC50 (α-glucosidase inhibitory activity)
[8] = IC50 (α-glucosidase inhibitory activity)

T1 sequence (P53341 whole entry): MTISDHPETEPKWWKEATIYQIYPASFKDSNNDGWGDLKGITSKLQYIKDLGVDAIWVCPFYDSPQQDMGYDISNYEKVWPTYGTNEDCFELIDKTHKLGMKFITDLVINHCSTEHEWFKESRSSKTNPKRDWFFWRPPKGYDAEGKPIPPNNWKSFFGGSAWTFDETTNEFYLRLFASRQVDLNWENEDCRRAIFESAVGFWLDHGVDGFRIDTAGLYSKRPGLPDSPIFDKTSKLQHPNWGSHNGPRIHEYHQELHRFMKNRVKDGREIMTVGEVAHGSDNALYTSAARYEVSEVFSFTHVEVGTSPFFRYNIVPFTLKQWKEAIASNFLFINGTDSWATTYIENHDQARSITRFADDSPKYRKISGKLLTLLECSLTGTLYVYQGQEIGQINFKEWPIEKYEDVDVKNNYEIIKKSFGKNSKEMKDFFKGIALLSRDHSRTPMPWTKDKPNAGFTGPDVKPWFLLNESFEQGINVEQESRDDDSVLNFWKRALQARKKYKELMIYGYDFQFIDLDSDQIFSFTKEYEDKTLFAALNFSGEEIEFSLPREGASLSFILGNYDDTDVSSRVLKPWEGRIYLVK

IC50 (α-glucosidase [1]; [7]) [µM]	SMILES	IC50 (α-glucosidase [1]; [8]) [µM]	melting point [°C]	other results
–	Cc1ccccc1NC(=O)Cn1cc(CNC(=O)c2nc3ccccc3[nH]2)nn1 [8b, N-((1-(2-oxo-2-(o-tolylamino)ethyl)-1H-1,2,3-triazol-4-yl)methyl)-1H-benzo[d]imidazole-2-carboxamide]	> 750	–	activity against α-glucosidase (in words) (α-glucosidase [1]): have not activity
–	Cc1cccc(NC(=O)Cn2cc(CNC(=O)c3nc4ccccc4[nH]3)nn2)c1 [8c, N-((1-(2-oxo-2-(m-tolylamino)ethyl)-1H-1,2,3-triazol-4-yl)methyl)-1H-benzo[d]imidazole-2-carboxamide]	49 ± 0.4	206 to 208	IC50 [2]: > 200 µM; cytotoxic activity (in words) [3]: did not show cytotoxic activity; inhibition mechanism against α-glucosidase (α-glucosidase [4]; Lineweaver–Burk plot, Vmax constant, Km increased): competitive inhibitor; Ki (α-glucosidase [4]; secondary plot of Lineweaver–Burk plots): 40 µM; fold more potent than positive control (acarbose) (α-glucosidase [1]; ratio of IC50 values vs acarbose): 15.3 fold; cytotoxic activity (in words) [5]: did not show cytotoxic activity; IC50 [6]: > 200 µM
–	Cc1ccc(NC(=O)Cn2cc(CNC(=O)c3nc4ccccc4[nH]3)nn2)cc1 [8d, N-((1-(2-oxo-2-(p-tolylamino)ethyl)-1H-1,2,3-triazol-4-yl)methyl)-1H-benzo[d]imidazole-2-carboxamide]	> 750	209 to 211	activity against α-glucosidase (in words) (α-glucosidase [1]): have not activity
422.6 ± 1.1	Cc1ccc(NC(=O)Cn2cc(CNC(=O)c3nc4ccccc4[nH]3)nn2)c(C)c1 [8f, N-((1-(2-((2,4-dimethylphenyl)amino)-2-oxoethyl)-1H-1,2,3-triazol-4-yl)methyl)-1H-benzo[d]imidazole-2-carboxamide]	–	226 to 228	–
125.6 ± 0.3	Cc1cccc(C)c1NC(=O)Cn1cc(CNC(=O)c2nc3ccccc3[nH]2)nn1 [8g, N-((1-(2-((2,6-dimethylphenyl)amino)-2-oxoethyl)-1H-1,2,3-triazol-4-yl)methyl)-1H-benzo[d]imidazole-2-carboxamide]	–	222 to 224	IC50 [2]: > 200 µM; cytotoxic activity (in words) [3]: did not show cytotoxic activity; cytotoxic activity (in words) [5]: did not show cytotoxic activity; IC50 [6]: > 200 µM
251.9 ± 1.6	CCc1ccc(NC(=O)Cn2cc(CNC(=O)c3nc4ccccc4[nH]3)nn2)cc1 [8h, N-((1-(2-((4-ethylphenyl)amino)-2-oxoethyl)-1H-1,2,3-triazol-4-yl)methyl)-1H-benzo[d]imidazole-2-carboxamide]	–	213 to 215	–
–	COc1ccc(NC(=O)Cn2cc(CNC(=O)c3nc4ccccc4[nH]3)nn2)cc1 [8i, N-((1-(2-((4-methoxyphenyl)amino)-2-oxoethyl)-1H-1,2,3-triazol-4-yl)methyl)-1H-benzo[d]imidazole-2-carboxamide]	> 750	235 to 237	–
–	O=C(Cn1cc(CNC(=O)c2nc3ccccc3[nH]2)nn1)Nc1ccc(F)cc1 [8j, N-((1-(2-((4-fluorophenyl)amino)-2-oxoethyl)-1H-1,2,3-triazol-4-yl)methyl)-1H-benzo[d]imidazole-2-carboxamide]	> 750	245 to 247	–
–	O=C(Cn1cc(CNC(=O)c2nc3ccccc3[nH]2)nn1)Nc1ccc(Cl)cc1 [8k, N-((1-(2-((4-chlorophenyl)amino)-2-oxoethyl)-1H-1,2,3-triazol-4-yl)methyl)-1H-benzo[d]imidazole-2-carboxamide]	134.2 ± 0.9	236 to 238	–
668.5 ± 1.4	O=C(Cn1cc(CNC(=O)c2nc3ccccc3[nH]2)nn1)Nc1ccc(Cl)cc1Cl [8l, N-((1-(2-((2,4-dichlorophenyl)amino)-2-oxoethyl)-1H-1,2,3-triazol-4-yl)methyl)-1H-benzo[d]imidazole-2-carboxamide]	–	247 to 249	–
–	O=C(Cn1cc(CNC(=O)c2nc3ccccc3[nH]2)nn1)Nc1ccc(Br)cc1 [8m, N-((1-(2-((4-bromophenyl)amino)-2-oxoethyl)-1H-1,2,3-triazol-4-yl)methyl)-1H-benzo[d]imidazole-2-carboxamide]	183.6 ± 0.8	227 to 229	–
> 750	O=C(Cn1cc(CNC(=O)c2nc3ccccc3[nH]2)nn1)Nc1ccc([N+](=O)[O-])cc1 [8n, N-((1-(2-((4-nitrophenyl)amino)-2-oxoethyl)-1H-1,2,3-triazol-4-yl)methyl)-1H-benzo[d]imidazole-2-carboxamide]	–	259 to 261	–

SMILES	IC50 (α-glucosidase [1]; [7]) [µM]	IC50 (α-glucosidase [1]; [8]) [µM]	melting point [°C]	other results
O=C(Cn1cc(CNC(=O)c2nc3ccccc3[nH]2)nn1)Nc1ccccc1 [8a, N-((1-(2-oxo-2-(phenylamino)ethyl)-1H-1,2,3-triazol-4-yl)methyl)-1H-benzo[d]imidazole-2-carboxamide]	> 750	–	–	activity against α-glucosidase (in words) (α-glucosidase [1]): have not activity
Cc1cccc(NC(=O)Cn2cc(CNC(=O)c3nc4ccccc4[nH]3)nn2)c1C [8e, N-((1-(2-((2,3-dimethylphenyl)amino)-2-oxoethyl)-1H-1,2,3-triazol-4-yl)methyl)-1H-benzo[d]imidazole-2-carboxamide]	119.2 ± 0.8	–	216 to 218	IC50 [2]: > 200 µM; cytotoxic activity (in words) [3]: did not show cytotoxic activity; inhibitory activity diminished (fold) relative to 8c (α-glucosidase [1]; addition of a 2-methyl group to 3-methyl derivative 8c): around 2.5 fold; cytotoxic activity (in words) [5]: did not show cytotoxic activity; IC50 [6]: > 200 µM
